Earlier results in patent US20220401509A1, “Composition For Improving Mental State, Production Method For Composition For Improving Mental State, And Use Of Fruit Of Eggplant For Improving Mental State” (SHINSHU UNIVERSITY, priority 2019, published 2022).

Key:
adult individuals = conditions: according to the "Foods with Function Claims" in Japan
[1] = test system: spontaneously hypertensive rats (SHRs); conditions: purified, single oral dose to SHR

Structure (SMILES)	effective dose for antihypertensive effect in adult individuals (adult individuals)	antihypertensive effect [1]
O=C(/C=C/c1ccc(O)c(O)c1)O[C@@H]1C[C@](O)(C(=O)O)C[C@@H](O)[C@H]1O [CA, chlorogenic acid]	271 mg/day	–
NCCCC(=O)O [GABA, γ-aminobutyric acid]	12.3 mg/day	–
CCCC(=O)OCC[N+](C)(C)C [butyrylcholine]	–	had an antihypertensive effect
CC(O)C(=O)OCC[N+](C)(C)C.[I-] (centres unmarked) [lactoylcholine]	–	had an antihypertensive effect
CCC(=O)OCC[N+](C)(C)C [propionylcholine]	–	had an antihypertensive effect
